Test results taken from US20260159511A1, “SMALL MOLECULE STING ANTAGONISTS” (CURADEV PHARMA PVT. LTD., priority 2021, published 2026).

System: IRF pathway in THP1-Dual™ cells, THP-1 (HAQ)
Assay: Reporter gene expression assay in THP-1 cells (THP1-Dual, IRF pathway Lucia luciferase reporter, 2′,3′-cGAMP stimulation)
Format: cell-based, human
Settings: Homo sapiens, read-out: THP-1 (HAQ) Activity (IC50 value range)
Description: Reporter Gene Expression Assay in THP-1 Cells
THP1-Dual™ cells (Invivogen) were derived from the human THP-1 monocyte cell line by stable integration of two inducible reporter constructs. As a result, THP1-Dual™ cells allow the simultaneous study of the IRF pathway, by assessing the activity of a secreted luciferase (Lucia) and the NF-κB pathway, by monitoring the activity of secreted SEAP. 5×10^4 THP1-Dual™ cells were seeded in 384-well plates in growth medium and preincubated with novel compounds for 10 minutes followed by stimulation with 5 μM 2′,3′-cGAMP. After 20 hr of stimulation the supernatant was removed and the IRF pathway reporter protein was readily measured in the cell culture supernatant using QUANTI-Luc™ (Invivogen), a luciferase detection reagent on a Spectramax i3X luminometer.

Row | Structure (SMILES) | IC50
1 | O=C(Nc1ccc2c(c1)N(Cc1ccccc1)C(=O)CS2)Nc1c[nH]c2ccc(-c3ccn[nH]3)cc12 [Example 38, 1-(5-(1H-Pyrazol-5-yl)-1H-indol-3-yl)-3-(4-benzyl-3-oxo-3,4-dihydro-2H-benzo[b][1,4]thiazin-6-yl)urea] | 1000 to 10000 nM

Same assay, conditions: Homo sapiens; THP1-Dual cells preincubated with compound 10 minutes, stimulation with 5 μM 2′,3′-cGAMP for 20 hr, QUANTI-Luc readout of the supernatant; read-out: THP-1 (HAQ) Activity (IC50 value range)

Row | Structure (SMILES) | IC50
2 | Cc1ncc(-c2ccc3[nH]cc(NC(=O)Nc4ccc5c(c4)N(Cc4ccccc4)C(=O)CS5)c3c2)o1 [Example 41, 1-(4-benzyl-3-oxo-3,4-dihydro-2H-benzo[b][1,4]thiazin-6-yl)-3-(5-(2-methyloxazol-5-yl)-1H-indol-3-yl)urea] | 1000 to 10000 nM
3 | O=C(Nc1ccc2c(c1)N(Cc1ccccc1)C(=O)CS2)Nc1c[nH]c2ccc(-c3cn[nH]c3)cc12 [Example 44, 1-(5-(1H-pyrazol-4-yl)-1H-indol-3-yl)-3-(4-benzyl-3-oxo-3,4-dihydro-2H-benzo[b][1,4]thiazin-6-yl)urea] | 1000 to 10000 nM
4 | O=C(Nc1ccc2c(c1)N(Cc1ccccc1)C(=O)CS2)Nc1c[nH]c2ccc(-c3cnn(CCO)c3)cc12 [Example 46, 1-(4-benzyl-3-oxo-3,4-dihydro-2H-benzo[b][1,4]thiazin-6-yl)-3-(5-(1-(2-hydroxyethyl)-1H-pyrazol-4-yl)-1H-indol-3-yl)urea] | 1000 to 10000 nM
5 | NC(=O)c1cccc(-c2ccc3[nH]cc(NC(=O)Nc4ccc5c(c4)N(Cc4ccccc4)C(=O)CS5)c3c2)c1 [Example 48, 3-(3-(3-(4-benzyl-3-oxo-3,4-dihydro-2H-benzo[b][1,4]thiazin-6-yl)ureido)-1H-indol-5-yl)benzamide] | 1000 to 10000 nM
6 | COCCn1cc(-c2ccc3[nH]cc(NC(=O)Nc4ccc5c(c4)N(Cc4ccccc4)C(=O)CS5)c3c2)cn1 [Example 49, 1-(4-benzyl-3-oxo-3,4-dihydro-2H-benzo[b][1,4]thiazin-6-yl)-3-(5-(1-(2-methoxyethyl)-1H-pyrazol-4-yl)-1H-indol-3-yl)urea] | 1000 to 10000 nM
7 | N#CCCn1cc(-c2ccc3[nH]cc(NC(=O)Nc4ccc5c(c4)N(Cc4ccccc4)C(=O)CS5)c3c2)cn1 [Example 52, 1-(4-benzyl-3-oxo-3,4-dihydro-2H-benzo[b][1,4]thiazin-6-yl)-3-(5-(1-(2-cyanoethyl)-1H-pyrazol-4-yl)-1H-indol-3-yl)urea] | 1000 to 10000 nM
8 | CS(=O)(=O)c1cccc(-c2ccc3[nH]cc(NC(=O)Nc4ccc5c(c4)N(Cc4ccccc4)C(=O)CS5)c3c2)c1 [Example 54, 1-(4-benzyl-3-oxo-3,4-dihydro-2H-benzo[b][1,4]thiazin-6-yl)-3-(5-(3-(methylsulfonyl)phenyl)-1H-indol-3-yl)urea] | 1000 to 10000 nM
9 | O=C(Nc1ccc2c(c1)N(Cc1ccccc1)C(=O)CS2)Nc1c[nH]c2ccc(-c3cccc(OC(F)(F)F)c3)cc12 [Example 58, 1-(4-benzyl-3-oxo-3,4-dihydro-2H-benzo[b][1,4]thiazin-6-yl)-3-(5-(3-(trifluoromethoxy)phenyl)-1H-indol-3-yl)urea] | < 1000 nM
10 | CC(C)n1cc(-c2ccc3[nH]cc(NC(=O)Nc4ccc5c(c4)N(Cc4ccccc4)C(=O)CS5)c3c2)cn1 [Example 59, 1-(4-benzyl-3-oxo-3,4-dihydro-2H-benzo[b][1,4]thiazin-6-yl)-3-(5-(1-isopropyl-1H-pyrazol-4-yl)-1H-indol-3-yl)urea] | < 1000 nM
11 | O=C(Nc1ccc2c(c1)N(Cc1ccccc1)C(=O)CS2)Nc1c[nH]c2ccc(-c3cnn(CC4CC4)c3)cc12 [Example 60, 1-(4-benzyl-3-oxo-3,4-dihydro-2H-benzo[b][1,4]thiazin-6-yl)-3-(5-(1-(cyclopropylmethyl)-1H-pyrazol-4-yl)-1H-indol-3-yl)urea] | < 1000 nM
12 | O=C(Nc1ccc2c(c1)N(Cc1ccccc1)C(=O)CS2)Nc1c[nH]c2ccc(-c3cncc(CO)c3)cc12 [Example 61, 1-(4-benzyl-3-oxo-3,4-dihydro-2H-benzo[b][1,4]thiazin-6-yl)-3-(5-(5-(hydroxymethyl)pyridin-3-yl)-1H-indol-3-yl)urea] | 1000 to 10000 nM
13 | O=C1Cc2ccc(-c3ccc4[nH]cc(NC(=O)Nc5ccc6c(c5)N(Cc5ccccc5)C(=O)CS6)c4c3)cc2N1 [Example 62, 1-(4-benzyl-3-oxo-3,4-dihydro-2H-benzo[b][1,4]thiazin-6-yl)-3-(5-(2-oxoindolin-6-yl)-1H-indol-3-yl)urea] | < 1000 nM
14 | O=C(Nc1ccc2c(c1)N(Cc1ccccc1)C(=O)CS2)Nc1c[nH]c2ccc(-c3ccc(O)nc3)cc12 [Example 63, 1-(4-benzyl-3-oxo-3,4-dihydro-2H-benzo[b][1,4]thiazin-6-yl)-3-(5-(6-hydroxypyridin-3-yl)-1H-indol-3-yl)urea] | 1000 to 10000 nM
15 | O=C(Nc1ccc2c(c1)N(Cc1ccccc1)C(=O)CS2)Nc1c[nH]c2ccc(-c3cncs3)cc12 [Example 64, 1-(4-benzyl-3-oxo-3,4-dihydro-2H-benzo[b][1,4]thiazin-6-yl)-3-(5-(thiazol-5-yl)-1H-indol-3-yl)urea] | < 1000 nM

Results, then the molecule that gave them:

Row | IC50 | Structure (SMILES)
16 | < 1000 nM | N#Cc1ccc2[nH]cc(NC(=O)Nc3ccc4c(c3)N(Cc3ccccc3)C(=O)CS4)c2c1 [Example 37, 1-(4-benzyl-3-oxo-3,4-dihydro-2H-benzo[b][1,4]thiazin-6-yl)-3-(5-cyano-1H-indol-3-yl)urea]
17 | < 1000 nM | O=C(Nc1ccc2c(c1)N(Cc1ccccc1)C(=O)CS2)Nc1c[nH]c2ccc(-c3cnco3)cc12 [Example 39, 1-(4-benzyl-3-oxo-3,4-dihydro-2H-benzo[b][1,4]thiazin-6-yl)-3-(5-(oxazol-5-yl)-1H-indol-3-yl)urea]
18 | < 1000 nM | O=C(Nc1ccc2c(c1)N(Cc1ccccc1)C(=O)CS2)Nc1c[nH]c2ccc(-c3cc(F)cc(F)c3)cc12 [Example 40, 1-(4-benzyl-3-oxo-3,4-dihydro-2H-benzo[b][1,4]thiazin-6-yl)-3-(5-(3,5-difluorophenyl)-1H-indol-3-yl)urea]
19 | < 1000 nM | O=C(Nc1ccc2c(c1)N(Cc1ccccc1)C(=O)CS2)Nc1c[nH]c2ccc(-c3cnsc3)cc12 [Example 42, 1-(4-benzyl-3-oxo-3,4-dihydro-2H-benzo[b][1,4]thiazin-6-yl)-3-(5-(isothiazol-4-yl)-1H-indol-3-yl)urea]
20 | < 1000 nM | O=C(Nc1ccc2c(c1)N(Cc1ccccc1)C(=O)CS2)Nc1c[nH]c2ccc(-c3cccc(CO)c3)cc12 [Example 43, 1-(4-benzyl-3-oxo-3,4-dihydro-2H-benzo[b][1,4]thiazin-6-yl)-3-(5-(3-(hydroxymethyl)phenyl)-1H-indol-3-yl)urea]
21 | < 1000 nM | N#Cc1cccc(-c2ccc3[nH]cc(NC(=O)Nc4ccc5c(c4)N(Cc4ccccc4)C(=O)CS5)c3c2)c1 [Example 45, 1-(4-benzyl-3-oxo-3,4-dihydro-2H-benzo[b][1,4]thiazin-6-yl)-3-(5-(3-cyanophenyl)-1H-indol-3-yl)urea]
22 | < 1000 nM | CCn1cc(-c2ccc3[nH]cc(NC(=O)Nc4ccc5c(c4)N(Cc4ccccc4)C(=O)CS5)c3c2)cn1 [Example 47, 1-(4-benzyl-3-oxo-3,4-dihydro-2H-benzo[b][1,4]thiazin-6-yl)-3-(5-(1-ethyl-1H-pyrazol-4-yl)-1H-indol-3-yl)urea]
23 | < 1000 nM | O=C(Nc1ccc2c(c1)N(Cc1ccccc1)C(=O)CS2)Nc1c[nH]c2ccc(-c3cnn(C(F)F)c3)cc12 [Example 50, 1-(4-benzyl-3-oxo-3,4-dihydro-2H-benzo[b][1,4]thiazin-6-yl)-3-(5-(1-(difluoromethyl)-1H-pyrazol-4-yl)-1H-indol-3-yl)urea]
24 | < 1000 nM | O=C(Nc1ccc2c(c1)N(Cc1ccccc1)C(=O)CS2)Nc1c[nH]c2ccc(-c3ccncc3)cc12 [Example 51, 1-(4-benzyl-3-oxo-3,4-dihydro-2H-benzo[b][1,4]thiazin-6-yl)-3-(5-(pyridin-4-yl)-1H-indol-3-yl)urea]
25 | < 1000 nM | COc1cccc(-c2ccc3[nH]cc(NC(=O)Nc4ccc5c(c4)N(Cc4ccccc4)C(=O)CS5)c3c2)c1 [Example 53, 1-(4-benzyl-3-oxo-3,4-dihydro-2H-benzo[b][1,4]thiazin-6-yl)-3-(5-(3-methoxyphenyl)-1H-indol-3-yl)urea]
26 | < 1000 nM | O=C(Nc1ccc2c(c1)N(Cc1ccccc1)C(=O)CS2)Nc1c[nH]c2ccc(-c3cccnc3)cc12 [Example 55, 1-(4-benzyl-3-oxo-3,4-dihydro-2H-benzo[b][1,4]thiazin-6-yl)-3-(5-(pyridin-3-yl)-1H-indol-3-yl)urea]
27 | < 1000 nM | O=C(Nc1ccc2c(c1)N(Cc1ccccc1)C(=O)CS2)Nc1c[nH]c2ccc(-c3cncnc3)cc12 [Example 56, 1-(4-benzyl-3-oxo-3,4-dihydro-2H-benzo[b][1,4]thiazin-6-yl)-3-(5-(pyrimidin-5-yl)-1H-indol-3-yl)urea]
28 | < 1000 nM | O=C(Nc1ccc2c(c1)N(Cc1ccccc1)C(=O)CS2)Nc1c[nH]c2ccc(-c3cncc(Cl)c3)cc12 [Example 57, 1-(4-benzyl-3-oxo-3,4-dihydro-2H-benzo[b][1,4]thiazin-6-yl)-3-(5-(5-chloropyridin-3-yl)-1H-indol-3-yl)urea]

Same assay, conditions: THP1-Dual cells preincubated with compound 10 minutes, stimulation with 5 μM 2′,3′-cGAMP for 20 hr, QUANTI-Luc readout of the supernatant; read-out: THP-1 (HAQ) Activity (IC50 value range)

Row | IC50 | Structure (SMILES)
29 | < 1000 nM | CC1Sc2ccc(NC(=O)Nc3c[nH]c4ccccc34)cc2N(Cc2ccccc2)C1=O (stereo not drawn) [Example 35, 1-(4-benzyl-2-methyl-3-oxo-3,4-dihydro-2H-benzo[b][1,4]thiazin-6-yl)-3-(1H-indol-3-yl)urea]
30 | < 1000 nM | CC1Sc2ccc(NC(=O)Nc3c[nH]c4ccccc34)cc2N(Cc2ccccc2)C1=O (stereo not drawn) [Example 36, 1-(4-benzyl-2-methyl-3-oxo-3,4-dihydro-2H-benzo[b][1,4]thiazin-6-yl)-3-(1H-indol-3-yl)urea]
